These results are taken from paper PMC8639922, “KSHV transactivator-derived small peptide traps coactivators to attenuate MYC and inhibits leukemia and lymphoma cell growth” (Communications Biology, 2021).

In one assay the test system is BCBL-1. The experiment in a line: Flow cytometry, apoptosis induction (Annexin V staining). Particulars: BCBL-1, 24 h, AnnexinV+ 7AAD-. In kind it is cell-based, human. As to the method:
Leukoreduction system chambers (LRS) from healthy donors were purchased from Vitalant. Peripheral blood mononuclear cells (PBMCs) were prepared by a standard Ficoll gradient method. PBMCs along with THP-1 and BCBL-1 cell lines (2 × 10^6 cells/ml, 0.2 ml 10% FBS/RPMI/DMEM per well of a 96-well plate) were treated with various doses (0–256 μM) of either VGN50 peptide or control mutant peptide for 24 h. Cell death, apoptosis, and proliferation were analyzed by flow cytometry (BD Acuri) after intracellular staining with anti-humanKi67-Alexa488 (Biolegend, 1:100) along with the isotype control antibody, annexin-V-FITC with 7-AAD staining (Biolegend) according to the manufacture’s protocol, Live/dead Fixable Red Dead Cell staining kit (Invitrogen) according to the manufacture’s protocol, or MTT assay. Peptides were commercially synthesized (GenScript) with >90% purity with TFA removal.
AnnexinV+ 7AAD- % = apoptosis % […]
S-Figure 3. Flow cytometry analyses
(a) Apoptosis (%) was determined as Annexi nV+ 7AAD- popul at i on gat ed i n r ed shown i n
representative FACS plots of BCBL-1 cel l s t r eat ed wi t h PBS or VGN50 at 32µM. […]
(In flow cytometry, cells or beads pass a laser one at a time.)

Another assay concerns KSHV PAN RNA in BC-1. Put plainly: KSHV PAN RNA qRT-PCR (reactivation). It is filed as cell-based. Particulars: BC-1, 16 μM, 24 h. The method, then: Because VGN50 is derived from the KSHV transactivator sequence, we next examined if VGN50 can inhibit KSHV lytic replication by competitively blocking the coactivator binding to K-Rta. To study this, we used the TREx-K-Rta BCBL-1 cell line, in which we can trigger the expression of exogenous Flag-tagged K-Rta in a doxycycline (Dox) inducible manner. TREx-K-Rta BCBL-1 cells were treated with […] VGN50 or mutant peptide, with or without Dox induction. We used approximately one-half of the IC50 concentration of VGN50 to treat the TREx-K-Rta BCBL-1 cells in order to avoid cell toxicity effects that would non-specifically decrease viral gene expression. KSHV gene expression was profiled with a KSHV genome-wide PCR array, using ribosomal rRNA for normalization and as an internal control. Fold activation relative to the uninduced Mut-P-treated sample (not induced: Dox -) was determined and a heatmap for KSHV lytic gene expression was generated (Fig. 3a). […] Immunoblotting was used to confirm the induction of lytic replication by Dox based on exogenous K-Rta protein (Flag-K-Rta) and the expression of two other KSHV lytic proteins (ORF57 and K-bZIP) along with actin and KSHV LANA protein as controls for equal loading and similar viral copy numbers in samples, respectively (Fig. 3b).
Fig. 3 Effects of VGN50 on KSHV gene transcription and VGN50 binding with SWI/SNF components. a KSHV qRT-PCR array analysis was used to study effects of VGN50 on KSHV gene transcription in a genome-wide manner. Uninduced (−; no doxycycline added) or dox-induced (+; 1 μg/ml) cells were treated with VGN50 or the mutant peptide (Mut-P) at a concentration of 24 μM. Samples were collected at 24 h post-treatment. Expression in uninduced cells was set as 1 for each viral gene and expression shown as fold activation relative to no-Dox samples. Selected cellular genes were also included in the PCR array for comparison. 18S ribosomal RNA was used as an internal control. b KSHV protein expression. Immunoblotting was performed to confirm both endogenous and exogenous K-Rta expression before (not induced) and after induction by Dox treatment (Dox-induced). Latent KSHV protein LANA and actin were used as controls for KSHV copy number (LANA) and loading (actin), respectively. Protein samples were collected 48-h post Dox incubation. c KSHV reactivation by VGN50 incubation. BCBL-1 and BC-1 cell lines were treated with VGN50 (16 μM concentration) and total RNA harvested at 24 h post treatment. KSHV PAN RNA expression was examined by qRT-PCR and relative expression over 18S rRNA is shown. Data are presented as mean ± SD (n = 3). d Purification of recombinant SWI/SNF components. SDS-PAGE analysis of five SWI/SNF components individually prepared from baculovirus-infected Sf9 cells. e A schematic illustration of ELISA assay to evaluate VGN50 and SWI/SNF interaction. f Analysis of VGN50 binding to SWI/SNF components by ELISA. Increasing concentrations of biotin-conjugated VGN50 or Mut-P were incubated in duplicate in an ELISA plate coated with each SWI/SNF component. Peptide binding measured as OD values at 450 nm are shown. Mean OD values were compared between the VGN50 and Mut-P in each concentration using unpaired t-test. **p < 0.01, *p < 0.05, NS no significance. Data are presented as mean ± SD with duplicated samples and repeated three times with different purified protein preps.
(In general: Quantitative PCR measures a nucleic acid by following its amplification.)

For another assay, the system named is 5 SWI/SNF components. The experiment in a line: ELISA-based peptide binding assay, summary for all five proteins. Particulars: biotin-conjugated peptide, same peptide concentrations. The method, then: Fig. 3 Effects of VGN50 on KSHV gene transcription and VGN50 binding with SWI/SNF components. a KSHV qRT-PCR array analysis was used to study effects of VGN50 on KSHV gene transcription in a genome-wide manner. Uninduced (−; no doxycycline added) or dox-induced (+; 1 μg/ml) cells were treated with VGN50 or the mutant peptide (Mut-P) at a concentration of 24 μM. Samples were collected at 24 h post-treatment. Expression in uninduced cells was set as 1 for each viral gene and expression shown as fold activation relative to no-Dox samples. Selected cellular genes were also included in the PCR array for comparison. 18S ribosomal RNA was used as an internal control. b KSHV protein expression. […] Peptide binding measured as OD values at 450 nm are shown. […]
To confirm the basis of the VGN50 action, the biochemical interactions between VGN50 and SWI/SNF proteins (i.e., putative VGN50 target molecules), were examined by ELISA-based binding assays using purified five individual SWI/SNF components prepared from baculovirus-infected Sf9 cells (Fig. 3d). Increasing concentrations of biotin-conjugated VGN50 or Mut-P were incubated in an ELISA plate coated with each SWI/SNF component, and the bound peptides were detected by HRP-streptavidin (Fig. 3e). […]
On the technique in general: ELISA stands for enzyme-linked immunosorbent assay.

Square brackets hold non-standard residues; d marks the D form. Peptide text beside a SMILES is read from it. Orn = NCCC[C@H](N)C(=O)O; βAla = NCCC(=O)O

As to `CC(C)C[C@H](NC(=O)CCNC(=O)[C@H](CCCNC(=N)N)NC(=O)[C@H](CCCNC(=N)N)NC(=O)[C@H](CCCNC(=N)N)NC(=O)[C@H](CCCN)NC(=O)[C@H](CCCNC(=N)N)NC(=O)[C@H](CCCNC(=N)N)NC(=O)[C@H](CCCCN)NC(=O)[C@H](CCCCN)NC(=O)[C@H](N)CCCNC(=N)N)C(=O)N[C@@H](CO)C(=O)N[C@@H](CO)C(=O)N[C@@H](C)C(=O)N[C@@H](C)C(=O)N[C@@H](C)C(=O)NCC(=O)N[C@@H](CC(C)C)C(=O)N[C@@H](Cc1ccc(O)cc1)C(=O)N[C@@H](CCC(N)=O)C(=O)N[C@@H](CC(C)C)C(=O)N[C@@H](CC(=O)O)C(=O)N[C@H](C(=O)O)[C@@H](C)O` [Mt-P] (H-[dR]KKRR[Orn]RRR[βAla]LSSAAAGLYQLDT-OH; N-terminus and C-terminus assumed), the “AnnexinV+%” value in the assay with BCBL-1 (replicate 1) was found to be 3.66%; in the assay with BCBL-1 (replicate 2), 5.9%; with BCBL-1 (replicate 3), 4.52%. Further, the entries for the “KSHV PAN RNA relative expression over 18S rRNA” value in the assay with KSHV PAN RNA in BC-1 (replicate 1), with KSHV PAN RNA in BC-1 (replicate 2) and in the assay on KSHV PAN RNA in BC-1 (replicate 3) were 1.419e-5, 1.503e-5 and 1.204e-5, respectively. Besides, the “Binding to SWI/SNF components compared with VGN50” value in the assay on 5 SWI/SNF components is listed as “did not bind SWI/SNF components as much as VGN50”.
